Reference: PubChem BioAssay AID1963867 (Molecular Pharmacology Branch, DTP, NCI, 2024)
Activity calls are given as the source filed them. The calls were made as follows: active = viability on the fitted dose curve at most 10% of control; inactive = the rest.

Tested on: KRAS-mutant PDC tumor spheroid with HUVEC/MSC, viability
Test: Anticancer human tumor 327498-153-R-J2-PDC patient-derived uterine carcinosarcoma cell line growth inhibition [KRAS2]
Settings: for IC50: curve of first compound; for viability, T/C: stronger effect = lower value
Text: Multicellular complex tumor spheroid response to RAS pathway inhibitors in combination with a targeted agents in patient-derived cell lines with oncogenic KRAS variants from multiple cancer types
A high-throughput screen of multi-cell type tumor spheroids was designed to identify active combinations of targeted small molecules and KRAS pathway inhibitors. Complex spheroids include a stromal component modeled by human endothelial cells (HUVEC) and fibroblasts modeled by human mesenchymal stem cells (MSCs). The concentration ranges selected for each drug and investigational agent were based upon clinically achievable concentrations if the clinical Cmax of the agent was known.
Compounds. The drugs and investigational agents: BI-3406 (NSC825286), BAY-293 (NSC824723), batoprotafib (TNO155; NSC825523), sotorasib (AMG 510; NSC818433), MRTX1257 (NSC819558), elimusertib (BAY 1895344; NSC800525), molibresib (GSK525762; NSC774829), temuterkib (LY3214996; NSC803410), venetoclax (NSC766270), alisertib (NSC759677), olaparib (NSC753686), talazoparib (NSC767125), erdafitinib (NSC781556), ipatasertib (NSC767898), cabozantinib (NSC761068), nintedanib (NSC756659), abemaciclib (NSC768073), docetaxel (NSC628503), trametinib (NSC758246), and sapanisertib (NSC764658) were obtained from the National Cancer Institute (NCI) Developmental Therapeutics Program Chemical Repository. The FDA-approved anticancer drug set is available from the Developmental Therapeutics Program. […] The stock solutions were prepared in dimethyl sulfoxide (DMSO, Sigma-Aldrich, St. Louis, MO, cat. D2650) at 800-fold the tested concentration and stored at -70 degrees C prior to their use. All drugs and investigational agents were tested over a range starting from a high concentration at or near the clinical Cmax and decreasing in half-log increments. If the clinical Cmax for an agent had not been determined, the highest concentration tested was 10 microM.
Cell Culture. All cells were maintained in an incubator at 37 degrees C and 5% CO2 with 95% humidity. The PDC lines were cultured according to standard operating procedures established by the NCI PDMR (https://pdmr.cancer.gov/sops/default.htm). Briefly, all PDCs were thawed and cultured in Matrigel-coated flasks prepared with a working solution of 1X Ham's F-12 nutrient mix, without supplementation (Invitrogen, Waltham, MA, cat. 11765054), 100 U/mL penicillin-streptomycin (Invitrogen, cat. 15140122), and 2.5% Matrigel (Corning Inc., Corning, NY, cat. 354248) for the first three passages. All PDCs were cultured in complete DMEM/F-12 media containing advanced DMEM/F-12 (Invitrogen, cat. 12634028), 4.9% defined fetal bovine serum, heat inactivated (HyClone Laboratories Inc., Logan, UT, cat. SH30070.03HI), 389 ng/mL hydrocortisone (Sigma-Aldrich, cat. H4001), 9.7 ng/mL human EGF recombinant protein (Invitrogen, cat. PHG0313), 23.4 microg/mL adenine (Sigma-Aldrich, cat. A2786), 97.3 U/mL penicillin-streptomycin (Invitrogen, cat. 15140122), 1.9 mM L-glutamine (Invitrogen, cat. 25030081), and 9.7 microM Y-27632 dihydrochloride (Tocris Bioscience, Bristol, United Kingdom, cat. 1254). The PDCs were cultured in complete DMEM/F12 media without 9.7 microM Y-27632 dihydrochloride for at least two passages prior to the screen. The established cell line HOP-62 was cultured in RPMI 1640 medium, HEPES (Invitrogen, cat. 22400105) with 10% defined fetal bovine serum (HyClone Laboratories Inc., cat. SH30070.03) and 2 mM L-glutamine (Invitrogen, cat. 25030081). The pooled donor HUVEC were cultured in endothelial cell growth medium 2 (PromoCell, Heidelberg, Germany, cat. C-22011) and the hMSC were cultured in mesenchymal stem cell growth medium 2 (PromoCell, cat. C-28009). For all experiments, HUVEC and hMSC were used at passages </=5, while the malignant cell lines were used at passages </=15. […]

[1] = second compound 0.1 µM, first compound 0.000316 µM
[2] = second compound 0.1 µM, first compound 0.001 µM
[3] = second compound 0.1 µM, first compound 0.00316 µM
[4] = second compound 0.1 µM, first compound 0.01 µM
[5] = second compound 0.1 µM, first compound 0.0316 µM
[6] = second compound 0.1 µM, first compound 0.1 µM
[7] = second compound 0.316 µM, first compound 0.000316 µM
[8] = second compound 0.316 µM, first compound 0.001 µM
[9] = second compound 0.316 µM, first compound 0.00316 µM
[10] = second compound 0.316 µM, first compound 0.01 µM
[11] = second compound 0.316 µM, first compound 0.0316 µM
[12] = second compound 0.316 µM, first compound 0.1 µM
[13] = second compound 1 µM, first compound 0.000316 µM
[14] = second compound 1 µM, first compound 0.001 µM
[15] = second compound 1 µM, first compound 0.00316 µM
[16] = second compound 1 µM, first compound 0.01 µM
[17] = second compound 1 µM, first compound 0.0316 µM
[18] = second compound 1 µM, first compound 0.1 µM
[19] = second compound 3.16 µM, first compound 0.000316 µM
[20] = second compound 3.16 µM, first compound 0.001 µM
[21] = second compound 3.16 µM, first compound 0.00316 µM
[22] = second compound 3.16 µM, first compound 0.01 µM
[23] = second compound 3.16 µM, first compound 0.0316 µM
[24] = second compound 3.16 µM, first compound 0.1 µM
[25] = second compound 10 µM, first compound 0.000316 µM
[26] = second compound 10 µM, first compound 0.001 µM
[27] = second compound 10 µM, first compound 0.00316 µM
[28] = second compound 10 µM, first compound 0.01 µM
[29] = second compound 10 µM, first compound 0.0316 µM
[30] = second compound 10 µM, first compound 0.1 µM
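For IC50 in this document: spheroids exposed to agents for seven days before reading.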
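For viability, T/C in this document: spheroids exposed to agents for seven days before reading; 100% = DMSO vehicle wells so lower means fewer viable cells.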

SMILES | IC50 (second compound 0.1 µM) [nM] | IC50 (second compound 0.316 µM) [nM] | IC50 (second compound 1 µM) [nM] | IC50 (second compound 3.16 µM) [nM] | IC50 (second compound 10 µM) [nM] | viability, T/C [1] [%] | viability, T/C [2] [%] | viability, T/C [3] [%] | viability, T/C [4] [%] | viability, T/C [5] [%] | viability, T/C [7] [%] | viability, T/C [8] [%] | viability, T/C [9] [%] | viability, T/C [10] [%] | viability, T/C [11] [%] | viability, T/C [13] [%] | viability, T/C [14] [%] | viability, T/C [15] [%] | viability, T/C [16] [%] | viability, T/C [17] [%] | also measured
CN(C)C/C=C/C(=O)Nc1cc2c(Nc3ccc(F)c(Cl)c3)ncnc2cc1O[C@H]1CCOC1 + CC1OCC2(CCN(c3cnc(Sc4ccnc(N)c4Cl)c(N)n3)CC2)C1N | > 100 | > 100 | > 100 | < 0.316 | 0.428 | 75.6 | 82 | 71 | 71 | 69.3 | 62.8 | 60.4 | 53.5 | 53.1 | 51.2 | 106 | 109 | 103 | 104 | 99 | viability, T/C [6]: 56.4%; viability, T/C [12]: 53%; viability, T/C [18]: 91.7%; viability, T/C [19]: 44%; viability, T/C [20]: 42.1%; viability, T/C [21]: 37%; viability, T/C [22]: 40.7%; viability, T/C [23]: 32.7%; viability, T/C [24]: 31.9%; outcome [25]: inactive; outcome [26]: inactive; viability, T/C [27]: 44%; outcome [28]: inactive; viability, T/C [29]: 37.3%; viability, T/C [30]: 33.5%
CC(=O)Nc1cccc(-n2c(=O)n(C3CC3)c(=O)c3c(Nc4ccc(I)cc4F)n(C)c(=O)c(C)c32)c1 + COc1cc2nc(C)nc(NC(C)c3cc(N)cc(C(F)(F)F)c3)c2cc1OC1CCOC1 | 3.71 | 2.62 | 2.12 | 1.05 | < 0.1 | 68.6 | 55.7 | 48.5 | 46.1 | 25.5 | 63.1 | 54.5 | 50.9 | 43.2 | 26.8 | 67.3 | 52.3 | 44.3 | 40.8 | 22.9 | viability, T/C (second compound 0.1 µM, first compound 0.0001 µM): 67.4%; viability, T/C (second compound 0.316 µM, first compound 0.0001 µM): 74.9%; viability, T/C (second compound 1 µM, first compound 0.0001 µM): 64.6%; viability, T/C (second compound 3.16 µM, first compound 0.0001 µM): 56.5%; viability, T/C [19]: 52.6%; viability, T/C [20]: 47.9%; viability, T/C [21]: 44.1%; viability, T/C [22]: 40%; viability, T/C [23]: 22.4%; viability, T/C (second compound 10 µM, first compound 0.0001 µM): 48.1%; viability, T/C [25]: 37.7%; viability, T/C [26]: 38.4%; viability, T/C [27]: 29.8%; viability, T/C [28]: 31.1%; viability, T/C [29]: 18.3%
CN(C)C/C=C/C(=O)Nc1cc2c(Nc3ccc(F)c(Cl)c3)ncnc2cc1O[C@H]1CCOC1 + COc1cc2nc(C)nc(NC(C)c3cc(N)cc(C(F)(F)F)c3)c2cc1OC1CCOC1 | > 100 | > 100 | > 100 | 16.2 | > 100 | 88.6 | 84 | 75.2 | 76.7 | 69.5 | 72.5 | 76 | 64 | 67.3 | 59.9 | 90.8 | 85.1 | 88.1 | 86 | 83.8 | viability, T/C [6]: 68.1%; viability, T/C [12]: 62.4%; viability, T/C [18]: 84.8%; viability, T/C [19]: 60.9%; viability, T/C [20]: 57.1%; viability, T/C [21]: 52.7%; viability, T/C [22]: 48.2%; viability, T/C [23]: 49.9%; viability, T/C [24]: 49.5%; viability, T/C [25]: 58.5%; viability, T/C [26]: 56.7%; viability, T/C [27]: 49.8%; viability, T/C [28]: 49.3%; viability, T/C [29]: 53.7%; viability, T/C [30]: 54.6%
